According to patent US11241436B2, “Autophagy inducers for treatment of CNS conditions” (Northwestern University, priority 2017, dated 2022):
Like-named read-outs stand apart in the source and are kept apart here.

What was measured:
[1] = test system: HEK293 cells stably expressing APP; experiment: Dot blot of secreted Aβ42 in conditioned media of APP-HEK293 cells; assay type: cell-based, human
Method: Cells were transfected with non-targeting control (NC) or ATG7 siRNA 24 h prior to ML246 treatment. Results are quantified from 4 independent experiments.
In addition to Becn2^F121A-mediated genetic activation of autophagy, it was decided to further study whether stimulating autophagy pharmacologically is also protective against neurodegenerative progression. A brain-penetrable autophagy-inducing small molecule ML246 (metarrestin) was recently identified, and analyzed its effects on the clearance of aggregate-prone proteins in vitro and in vivo. For in vitro analyses, the HEK293 cell line stably expressing APP (APP-HEK293) was utilized, in which the produced Aβ molecules are efficiently secreted, to study the effect of ML246 on amyloid metabolism. […] In addition, cultured WT primary cortical neurons treated with the conditioned media from ML246-treated APP-HEK293 cells underwent a lower level of apoptotic cell death than those treated with media from vehicle-treated APP-HEK293 cells (FIG. 18B).
Dot blot assay. […] Protein concentration was quantified using BCA Assay (Pierce). […] The membrane was stained with Ponceau S, and the dot blot signal on the membrane was detected by immunostaining with Aβ42 antibody (Invitrogen, 700254, 1:1000) and HRP-conjugated secondary antibody (Santa Cruz Biotechnology, sc2004, 1:2000). […]

[2] = mouse

Structure (SMILES)	level of secreted Aβ in the conditioned media ([1]; APP-HEK293 cells, 24 h)	ML246-mediated reduction of secreted Aβ42 ([1]; siRNA knockdown of ATG7)	percentage bound by plasma protein ([2]; 10 μg/ml)	percentage bound by plasma protein ([2]; 50 μg/ml) [%]	percentage bound by plasma protein ([2]; 100 μg/ml) [%]
N=c1c2c(-c3ccccc3)c(-c3ccccc3)n(Cc3ccccc3)c2ncn1[C@H]1CC[C@H](O)CC1 [ML246]	significantly reduced	reversed			
CC(C)=CCC[C@](C)(O)[C@H]1CC[C@]2(C)[C@@H]1[C@H](O)C[C@@H]1[C@@]3(C)CC[C@H](O)C(C)(C)[C@@H]3[C@@H](O[C@@H]3O[C@H](CO)[C@@H](O)[C@H](O)[C@H]3O[C@@H]3O[C@@H](C)[C@H](O)[C@@H](O)[C@H]3O)C[C@]12C [Rg2, ginsenoside Rg2]			approximately 42%	~24	~15
